Experiment: Human HepG2 cell viability assay in 384 well format
Type: toxicity, cell-based
Parameters: dose 125 nL, time 70.5 hour; concentration not given beside the values
Settings: HepG2 cells, read-out: Inhibition

SMILES	cytotoxicity at 70.5 h [%]
CS(=O)(=O)N1CCOCC2(CCN(c3ccccn3)C2)C1 (stereo not given)	-10.4
CC(N)Cc1ccccc1Sc1ccc(O)cc1 (stereo not given)	-7.28
CN(Cc1ccco1)C(=O)C1CSCN1C(=O)c1cccs1 (stereo not given)	12.5
O=C(c1ccc(SC(F)(F)F)cc1)N1CCOCC1c1ncon1 (stereo not given)	-5.57
CCC(=O)Nc1nnc2n(Cc3cccc(OC)c3)[nH]c(C)c1-2	-0.289
COc1cc(N2CCC3(CC2)CN(CCO)c2ccccc23)ncn1	-0.577
Cc1cccc(C(Nc2nccc(-c3ccc(C)nc3C)n2)C2CC2)n1 (stereo not given)	-3.12
CC(=O)NCc1noc2c1CN(Cc1ccsc1)CC2	-7.56
Cc1ccc(C(=O)N2CCC3(CCCC3)CC2)c(=O)[nH]1	-99.3
CC(c1ncc(C(C)(C)C)o1)N1CCN(Cc2ccc(Cl)s2)CC1 (stereo not given)	16.2
COc1cccc(CNC(=O)Nc2ccc3[nH]nnc3c2)c1OC	-9.41
CN(C)Cc1ccnc(NS(=O)(=O)Cc2cccc(F)c2)c1	1.98
Cn1cc(CCNC(=O)NC2CCN(Cc3ccccn3)CC2)cn1	31.9
CCn1ncc(C(=O)NCCc2nc(-c3ccncc3)n[nH]2)c1C	-7.04
COC(=O)[C@H](C)NC(=O)CSCc1nc2sc(C(C)C)cc2c(=O)[nH]1	-9.3
CCOc1ccccc1OC1CCN(C(=O)c2cc[nH]n2)CC1	-1.68
c1cnc(N2Cc3nccn3CC(COc3cccnc3)C2)nc1 (stereo not given)	-8.37
O=C1COC2(COCCN(Cc3cccnc3)C2)CN1c1ccoc1 (stereo not given)	-9.07
COCCN(CC1CCCN(C2Cc3ccccc3C2)C1)C(=O)COC (stereo not given)	-7.6
CN(Cc1cccc(-n2cccn2)c1)C(=O)c1ccnc(N)c1	3.21
CCCN(c1ccccc1C(=O)O)S(=O)(=O)c1ccc2ccccc2c1	-6.16
CCC(C)Oc1cc(C(=O)Nc2nnc(C(C)C)[nH]2)ccn1 (stereo not given)	3.52
Cn1cc(C[C@H]2[C@H](O)CCN2CC2CC2)cn1	6.74

SMILES	cytotoxicity at 70.5 h [%]
Cc1nccn1[C@@H]1CC[C@@H](NC(=O)Cn2c(C)nc3ccccc32)[C@H]1O	0.7
Cc1nc(N2CCOCC2)ncc1-c1cc(O)nc(N2CCCCC2)n1	14.1
Cc1cn2c(n1)C(CNCC1=Cc3ccccc3OC1)CCC2 (stereo not given)	10.6
CC(NCc1cccc2c1OCCO2)c1cc2c(cc1Br)OCCO2 (stereo not given)	-7.55
CN(C)C(=O)N1C[C@@H]2COC[C@]2(CNS(C)(=O)=O)C1	-14.4
Cc1ccc(N2CCCC(NCc3c(C)noc3C)C2)nn1 (stereo not given)	-8.52
CC(=O)c1c(F)cccc1NC1CCN(C(=O)C2CCCCC2)CC1	-2.39
CCNC(=O)N(C)C(c1cccc(F)c1)c1ccccn1 (stereo not given)	-14
Cc1n[nH]c(C2CN(C(=O)CCCn3cccn3)CCO2)n1 (stereo not given)	-2.71
Cc1nn(C)c(C)c1NC(=O)CCn1ncc2ccc(Cl)cc21	-11.9
CS(=O)(=O)NCCN1CCOC2(CCc3ccccc32)C1 (stereo not given)	-7.71
COCC(=O)N1CCCCC1c1ccnc(Nc2cnccn2)n1 (stereo not given)	-7.98
O=C(NS(=O)(=O)c1ccc2c(c1)CCC2)C1COCCO1 (stereo not given)	26.8
CC(=O)NCc1ccc(S(=O)(=O)NC(=O)c2ccc3c(c2)COC3)cc1	-4.89
CNC(=O)c1n[nH]c2c1C(c1cccc3[nH]ccc13)CC(=O)N2 (stereo not given)	-3.23
CCc1nnc(NCc2cccc(OC)c2OC)o1	8.49
Cn1ccnc1CN(CCCO)CC(F)(F)F	0.0577
COCCCNC(=O)c1cc(OC)c2ccoc2c1	22.5
Cc1ncc(S(C)(=O)=O)c(N2CCCN(Cc3ccccn3)CC2)n1	-5.13
CNC(=O)C1CCCCN1C(=O)Cc1csc(-c2ccc(C)o2)n1 (stereo not given)	-11.8
COCCN(C)C1COC2(CCN(Cc3ccccn3)CC2)C1 (stereo not given)	11.6
Cc1nn(C)cc1CC(C#N)C(=O)Nc1cccc(O)c1 (stereo not given)	-12.6
Cc1nccn1CC1CCCN(S(=O)(=O)c2cnn(C)c2)C1 (stereo not given)	-2.81

SMILES	cytotoxicity at 70.5 h [%]
CN(C(=O)c1ccncc1Cl)c1ccccc1S(C)(=O)=O	12.1
COc1cccc(N2CCN(Cc3ccc(NC(C)=O)cc3)CC2=O)c1	9.59
Cc1cc(NCc2nnc3n2CCC3)n2nc(C)c(C)c2n1	-12.3
COCC(=O)NC(C)Cc1cccc(OC)c1 (stereo not given)	0.122
Cc1c(NC(=O)NC(C)CCO)cccc1OC1CCCC1 (stereo not given)	-2.19
CCOc1ncccc1NC(=O)N1CCCCCC1	-13.8
O=S(=O)(c1cccnc1)N1CCN(CC(O)c2ccccc2)CC1 (stereo not given)	-3.21
N#CCCN(CC1CC1)S(=O)(=O)c1cccc(Cl)c1	-3.31
c1ccc2oc(CN3CCCC3Cn3cncn3)nc2c1 (stereo not given)	-6.61
CCN(C(=O)Nc1cccnc1OC)C1CC1	-9.27
COc1cccc(OC2CN(C(=O)c3ccnc(OC)c3)C2)c1	-21
COc1ccc(C(=O)Nc2cnn(CCN3CCOCC3)c2)c(O)c1	0.79
O=C1CO[C@H]2CN(S(=O)(=O)c3ccccc3)C[C@H]2N1Cc1ccccc1	-9.3
O=C(NCC1Cn2nnc(-c3ccsc3)c2CO1)N1CCCC1 (stereo not given)	-7.85
CN(CC1(O)CCN(c2ccnc3ccncc23)CC1)C(=O)CCN	-6.66
Cc1ccc(N2CCCC(NCc3cccs3)C2)nn1 (stereo not given)	-1.01
Cc1nc(C)c(S(=O)(=O)NC(=O)c2sccc2C)s1	-14.3
O=C1CNc2ncnc(Nc3cnn(Cc4ccccc4)c3)c2N1	27
CCN(CC)C(=O)CCn1ncc2c(Cl)cccc21	-10.4
CC(C)CC(C(=O)N(C)Cc1ncnn1C)N1CCCCC1=O (stereo not given)	-2.2
CCNC(=O)CCN1CCC(c2cc(N3CCOCC3)nc(C)n2)CC1	-7.37
Cc1nc(-c2ccsc2)ccc1C(=O)NCCN1CCOCC1	0.983
Cc1cc(N(Cc2ccccn2)C2CC2)n2nc(C(F)(F)F)nc2n1	-0.852

SMILES	cytotoxicity at 70.5 h [%]
Cc1c[nH]c(C2COCCN2C(=O)CCc2c(C)n[nH]c2C)n1 (stereo not given)	-9.97
COC(=O)NCC(=O)NCC1(c2c(F)cccc2F)CCCC1	1.47
CN(CCc1ccccn1)C(=O)c1cn2c(n1)CNCC2	-8.81
CCOC(=O)NC(C(=O)NCc1ccc(N2CCCCC2)nc1)C(C)C (stereo not given)	-8.83
O=C(N[C@@H]1CCN(Cc2ccc(F)cc2F)C[C@H]1O)c1cccnc1	8.03
Cc1ccc(OCC(=O)Nc2ccc(S(C)(=O)=O)cc2)cc1C	14
O=C(O)c1ccnc(-c2ccnc(NCCc3cscn3)n2)c1	-2.9
COc1ccc(OC)c(-c2nc(CN(C)Cc3nncn3C)c(C)o2)c1	-6.73
CC(C)c1ccc(S(=O)(=O)NC2(CC(N)=O)CCC2)cc1	2.8
Cn1cc(C2COC3(CCN(C(=O)Cn4cccn4)CC3)C2)cn1 (stereo not given)	-2.75
O=C(NCC1=CCCCC1)C(c1cccnc1)N1CCOCC1 (stereo not given)	-1.14
CC(C)n1cnnc1C1CCCN(S(=O)(=O)CCCC#N)C1 (stereo not given)	-35.2
CC(Nc1ncnc2c1NC(=O)CN2)c1ccccn1 (stereo not given)	-13.6
CC(C)NC(=O)C[C@@H]1CCNC[C@@H]1Cc1cc(-c2ccccn2)on1	-16.5
Cc1cnc2c(C(=O)N(C)Cc3cc(C4CC4)[nH]n3)cnn2c1	31.8
CCC(CNC(=O)CCn1cncn1)N1CCc2ccccc2C1 (stereo not given)	7.08
O=C(NCCn1ccnc1-c1cc2n(n1)CCNC2)c1ccncc1	-5.81
CCC(C)NC(=O)c1ccccc1-n1cnnn1 (stereo not given)	-11.4
COCCn1c2c(ccc1=O)CCN(C(=O)NC1CC1)CC2	-3.9
Cc1nsc(C(=O)NCCc2ccc(F)cc2)n1	-1.44
Cc1nc(CO[C@@H]2CN(Cc3cnn(C)c3)[C@@H]3COC[C@@H]32)cs1	5.43
Cc1nn(C)c2nc(N(CCOc3ccccc3)CC3CCCO3)sc12 (stereo not given)	21
CCCN(C(=O)CNC1CCc2ncnn2C1)C1=CCCCC1 (stereo not given)	-10.9

SMILES	cytotoxicity at 70.5 h [%]
O=C(O)c1cn(-c2ccccn2)c(=O)c2ccccc12	-11.1
CC(C)Cc1ccc(C(=O)Cn2cnnc2[S+](C)[O-])cc1 (stereo not given)	-3.94
CNCc1n[nH]c(=O)n1-c1ccccc1Oc1ccccc1	1.39
CCn1cc(NC(=O)c2cc(C)nc(N3CCOCC3)n2)cn1	-10.6
CCOCCCNc1ncc(-c2onc(C)c2C)c(-c2ccco2)n1	-10.1
O=C(c1ccncc1)N1CCc2onc(CN3CCCC3)c2C1	18.4
CCN1C[C@H]2CCN(C(=O)C3CCCO3)CC[C@H]2S1(=O)=O (stereo not given in full)	-7.09
CN(Cc1c(F)cccc1Cl)C(=O)Cn1cnc(C#N)n1	-7.04
NC(=O)C1(CCCc2ccccn2)CCCN(CCO)C1 (stereo not given)	-4.87
CC(C)N1CCC2(CC1)CC(c1cccnc1)C(=O)N2 (stereo not given)	-10.2
CN(CC(=O)N1CCCC(n2ccnc2)C1)c1cnccn1 (stereo not given)	-1.54
COc1cccc(CN2CCC(O)(c3ccc(C)cn3)CC2)c1OC	4.46
Cc1[nH]c2c(C)cccc2c1CC(=O)N(C)CCN(C)C	-8.69
COC(=O)c1ccc(S(=O)(=O)NC2CNC(=O)C2)cc1 (stereo not given)	0.76
O=C(c1ccc(-n2cnnc2)cc1)N1CCCC(n2ccnc2)C1 (stereo not given)	-8.88
CC(CNC(=O)C1(c2ccc(F)cc2)CC1)CN1CCCC1=O (stereo not given)	15.4
Cc1cnc(N2CCn3c(CN4CCOCC4)nnc3C2)nc1	21.1
Cc1cccc2nc(CN3CCC(N4CCN(C)C4=O)CC3)cn12	-4.38
CC(C)S(=O)(=O)NC(=O)c1cc(-c2cccc(Cl)c2)no1	-11.8
COCCc1noc(C2CCCN(c3nc(N)nc4c3CCCC4)C2)n1 (stereo not given)	3.87
CCn1cc(CN2CCC(CCC(=O)Nc3ccccc3Cl)CC2)cn1	12.4
O=C(NS(=O)(=O)c1ccc(Cl)cc1F)c1cccc2c1OCCO2	-108
Cc1cc(N2CCCC(O)(CN(C)C(=O)CCN)C2)c2cnccc2n1 (stereo not given)	26.9

Reference: ChEMBL document CHEMBL3507680, “University of Dundee, Gates Library screen for HepG2 cell viability”
